Laboratory results taken from ChEMBL document CHEMBL5729403, “Small molecule modulators of the BTB domain of Keap1” (2022).
pEC50: −log10 of the molar value.

Test: HEK293 luciferase: Purpose of the AssayThe purpose of this assay is to identify small molecule inhibitors of Keap1, preventing Keap1 binding to Nrf2, and thus activating the Nrf2 signalling pathway in HEK-293 ARE firefly luciferase transiently transfected cells. HEK-293 cells express wild-type Keap1 protein and therefore have low constitutive levels of Nrf2 protein and Nrf2-dependent transcription. […] When Keap1 is inhibited, Nrf2 signalling is activated, and there is an increase in luciferase expression and light emission.Assay WorkflowCryopreserved HEK ARE luciferase cells were rapidly thawed in a 37° C. water bath and resuspended in assay culture medium (DMEM, 10% FCS, 2 mM L-glutamine). The cell suspension was pelleted by centrifugation ([…]; 300 g) using a Heraeus benchtop centrifuge. Supernatant was removed and the pellet was gently resuspended in 5 mL culture medium per vial. Cell viability and cell number was measured using an Invitrogen Countess automated cell counter (typical viability 80%), and cells were diluted to a density of 5.0×10^5 cells/mL.Cells were then plated out into white 384-well plates (Greiner 781080) using a Multidrop Combi, 20 μL/well, to give 10,000 cells/well. As appropriate, test compounds had been added to wells prior to dispensing cells using an Echo 555 acoustic dispenser (Labcyte). Plates were left at room temperature for ˜10 min to promote even cell settling across the plate before incubation for 18 h at 37° C., 95% humidity and 5% CO2.After 18 h incubation, plates were removed from the incubator and allowed to cool to room temperature for 30 min, before 10 μL per well SteadyGlo reagent detection reagent was added (as per manufacturer's instructions, 10 min before required 10 mL room temperature buffer was added to one vial of lyophilised substrate and inverted several times to fully dissolve). Plates were then incubated in the dark for 30 min before reading on an Envision plate reader.Preparation of Compounds for ScreeningCompounds were acoustically dispensed using a Labcyte Echo, using a 10 pt dose curve with a top concentration of 100 μM. Assay wells were backfilled with DMSO to a total of 60 nL to maintain 0.3% (v/v) DMSO through the assay.Data Analysis Software and Calculation of ResultsThe Stimulator signal was defined using 30 μM tert-butyl hydroquinone (tBHQ) and the Neutral signal by DMSO vehicle control. All calculations were performed using GeneData.

| SMILES | pEC50 |
| --- | --- |
| CCc1cccc(C2(OC)C=C(C#N)C(=O)C(C)(C)C2)n1 (centres undefined) | < 4.52 |
| COC1(c2cccc(-c3ccccc3)n2)C=C(C#N)C(=O)C(C)(C)C1 (centres undefined) | 5.00 |
| COC1(c2cccc(C)n2)C=C(C#N)C(=O)C(C)(C)C1 (centres undefined) | 6.57 |
| COC1(c2ccc(C)cc2)C=C(C#N)C(=O)C(C)(C)C1 (centres undefined) | 6.51 |
